Source: patent US8952024B2, “Herbicidal pyrimidone derivatives” (E I du Pont de Nemours and Company, priority 2009, dated 2015)

Legend:
Format in all cases: in vivo
[1] = system: large crabgrass (Digitaria sanguinalis); experiment: Test B pre-/postemergence plant response; conditions: Postemergence
How it was run: (§1)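 Test compounds, formulated in a non-phytotoxic solvent mixture with surfactant, are applied to the soil surface (loam and sand blend) right after seeding, or sprayed over plants at the 1- to 4-leaf stage grown in peat moss/vermiculite medium. After 13 to 15 days under glasshouse conditions, each species is scored visually from 0 (no effect) to 100 (complete control) against controls.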

[2] = system: bermudagrass (Cynodon dactylon); experiment: Test B pre-/postemergence plant response; conditions: for Plant response rating, Bermudagrass: Postemergence
How it was run: as §1

[3] = system: green foxtail (Setaria viridis); experiment: Test B pre-/postemergence plant response; conditions: Postemergence
How it was run: as §1

[4] = system: goosegrass (Eleusine indica); experiment: Test B pre-/postemergence plant response; conditions: Postemergence
How it was run: as §1

[5] = system: morningglory (Ipomoea coccinea); experiment: Test B pre-/postemergence plant response; conditions: Postemergence
How it was run: as §1

[6] = system: yellow nutsedge (Cyperus esculentus); experiment: Test B pre-/postemergence plant response; conditions: Postemergence
How it was run: as §1

[7] = system: lambsquarters (Chenopodium album); experiment: Test B pre-/postemergence plant response; conditions: Postemergence
How it was run: as §1

wild oat (Avena fatua) = experiment: Test B pre-/postemergence plant response; conditions: Postemergence
How it was run: as §1

[8] = system: wheat (Triticum aestivum); experiment: Test B pre-/postemergence plant response; conditions: Postemergence
How it was run: as §1

[9] = system: cocklebur (Xanthium strumarium); experiment: Test B pre-/postemergence plant response; conditions: Postemergence
How it was run: as §1

[10] = system: barnyardgrass (Echinochloa crus-galli); experiment: Test B flooded paddy test; conditions: for Plant response rating, Flood, Barnyardgrass: 250 g ai/ha, flooded paddy test, visual rating on 0 to 100 scale (0 no effect, 100 complete control) after 13 to 15 days; for Plant response rating, Barnyardgrass: Flood (flooded paddy test), 13 to 15 days; for Barnyardgrass plant response rating: Flood, 31 g ai/ha, scale 0 to 100 (0 no effect, 100 complete control)
How it was run: (§2)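 Post-flood paddy application: compounds are introduced into water 3 cm deep over the soil, reaching plants at the 2-leaf stage. The water level is maintained, and after 13–15 days under greenhouse conditions, response is judged by eye relative to controls, where 100 means complete control.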

[11] = system: umbrella sedge (Cyperus difformis); experiment: Test B flooded paddy test; conditions: for Plant response rating, Flood, Sedge, Umbrella: 250 g ai/ha, flooded paddy test, visual rating on 0 to 100 scale (0 no effect, 100 complete control) after 13 to 15 days; for Plant response rating, Sedge, Umbrella: Flood (flooded paddy test), 13 to 15 days; for Sedge, Umbrella plant response rating: Flood, 31 g ai/ha, scale 0 to 100 (0 no effect, 100 complete control)
How it was run: as §2

[12] = 31 g ai/ha, 0 to 100 scale (0 no effect, 100 complete control)
[13] = 62 g ai/ha, scale 0 to 100 (0 no effect, 100 complete control)
[14] = 125 g ai/ha, scale 0 (no effect) to 100 (complete control), 13 to 15 days
[15] = 250 g ai/ha, scale 0 to 100 (0 no effect, 100 complete control), 13 to 15 days
[16] = 62 g ai/ha, scale of 0 to 100 where 0 is no effect and 100 is complete control
[17] = 125 g ai/ha, scale 0 to 100, 0 is no effect, 100 is complete control

## Cc1ccccc1-n1c(-c2cc(F)cc(F)c2)ncc(C(=O)C2=C(O)CCCC2=O)c1=O [Compound 159]
[1]; 8 g ai/ha, 0 to 100 scale
  Plant response rating, Crabgrass, Large: 65
[1]; 16 g ai/ha, 0 to 100 scale
  Plant response rating, Crabgrass, Large: 75
[1]; [12]
  Plant response rating, Crabgrass, Large: 80
[2]; 8 g ai/ha, 0 to 100 scale
  Plant response rating, Bermudagrass: 70
[2]; 16 g ai/ha, 0 to 100 scale
  Plant response rating, Bermudagrass: 80
[2]; 62 g ai/ha, postemergence, 0 is no effect, 100 is complete control, 13 to 15 days
  Bermudagrass plant response rating (0 to 100 scale): 100
[2]; [12]
  Plant response rating, Bermudagrass: 95
[3]; 8 g ai/ha, 0 to 100 scale
  Plant response rating, Foxtail, Green: 50
[3]; 16 g ai/ha, 0 to 100 scale
  Plant response rating, Foxtail, Green: 80
[3]; [12]
  Plant response rating, Foxtail, Green: 85
[4]; 8 g ai/ha, 0 to 100 scale
  Plant response rating, Goosegrass: 70
[4]; 16 g ai/ha, 0 to 100 scale
  Plant response rating, Goosegrass: 80
[4]; [12]
  Plant response rating, Goosegrass: 85
[5]; 8 g ai/ha, 0 to 100 scale
  Plant response rating, Morningglory: 0
[5]; 16 g ai/ha, 0 to 100 scale
  Plant response rating, Morningglory: 10
[5]; [12]
  Plant response rating, Morningglory: 60
[6]; 8 g ai/ha, 0 to 100 scale
  Plant response rating, Nutsedge, Yellow: 10
[6]; 16 g ai/ha, 0 to 100 scale
  Plant response rating, Nutsedge, Yellow: 20
[6]; [12]
  Plant response rating, Nutsedge, Yellow: 40
[7]; 8 g ai/ha, 0 to 100 scale
  Plant response rating, Lambsquarters: 90
[7]; 16 g ai/ha, 0 to 100 scale
  Plant response rating, Lambsquarters: 95
[7]; [12]
  Plant response rating, Lambsquarters: 100
Wild oat (Avena fatua); 8 g ai/ha, 0 to 100 scale
  Plant response rating, Oat, Wild: 0
Wild oat (Avena fatua); 16 g ai/ha, 0 to 100 scale
  Plant response rating, Oat, Wild: 35
Wild oat (Avena fatua); [12]
  Plant response rating, Oat, Wild: 60
[8]; 8 g ai/ha, 0 to 100 scale
  Plant response rating, Wheat: 10
[8]; 16 g ai/ha, 0 to 100 scale
  Plant response rating, Wheat: 35
[8]; [12]
  Plant response rating, Wheat: 40
[9]; 8 g ai/ha, 0 to 100 scale
  Plant response rating, Cocklebur: 75
[9]; 16 g ai/ha, 0 to 100 scale
  Plant response rating, Cocklebur: 80
[9]; [12]
  Plant response rating, Cocklebur: 95

## COCCCn1c(-c2cccc(F)c2)ncc(C(=O)C2=C(O)C3CCC(C3)C2=O)c1=O (stereo not drawn) [Compound 238]
[1]; [12]
  Plant response rating, Crabgrass, Large: 95
[1]; [13]
  Plant response rating, Crabgrass, Large: 98
[1]; [14]
  Plant response rating, Crabgrass, Large: 98
[1]; [15]
  Plant response rating, Crabgrass, Large: 98
[2]; [12]
  Plant response rating, Bermudagrass: 95
[2]; [13]
  Plant response rating, Bermudagrass: 98
[2]; [14]
  Plant response rating, Bermudagrass: 100
[2]; [15]
  Plant response rating, Bermudagrass: 100
[3]; [12]
  Plant response rating, Foxtail, Green: 85
[3]; [13]
  Plant response rating, Foxtail, Green: 95
[3]; [14]
  Plant response rating, Foxtail, Green: 98
[3]; [15]
  Plant response rating, Foxtail, Green: 98
[4]; [12]
  Plant response rating, Goosegrass: 95
[4]; [13]
  Plant response rating, Goosegrass: 98
[4]; [14]
  Plant response rating, Goosegrass: 98
[4]; [15]
  Plant response rating, Goosegrass: 98
[5]; [14]
  Plant response rating, Morningglory: 100
[5]; [15]
  Plant response rating, Morningglory: 100
[6]; [12]
  Plant response rating, Nutsedge, Yellow: 20
[6]; [13]
  Plant response rating, Nutsedge, Yellow: 20
[6]; [14]
  Plant response rating, Nutsedge, Yellow: 20
[6]; [15]
  Plant response rating, Nutsedge, Yellow: 25
[7]; [12]
  Plant response rating, Lambsquarters: 100
[7]; [13]
  Plant response rating, Lambsquarters: 100
[7]; [14]
  Plant response rating, Lambsquarters: 100
[7]; [15]
  Plant response rating, Lambsquarters: 100
Wild oat (Avena fatua); [12]
  Plant response rating, Oat, Wild: 30
Wild oat (Avena fatua); [13]
  Plant response rating, Oat, Wild: 35
Wild oat (Avena fatua); [14]
  Plant response rating, Oat, Wild: 50
Wild oat (Avena fatua); [15]
  Plant response rating, Oat, Wild: 60
[8]; [12]
  Plant response rating, Wheat: 40
[8]; [13]
  Plant response rating, Wheat: 45
[8]; [14]
  Plant response rating, Wheat: 80
[8]; [15]
  Plant response rating, Wheat: 80
[10]
  Plant response rating, Flood, Barnyardgrass: 40
  Barnyardgrass plant response rating: 0
[10]; [16]
  Plant response rating, Barnyardgrass: 0
[10]; [17]
  Plant response rating, Barnyardgrass: 30
[11]
  Plant response rating, Flood, Sedge, Umbrella: 80
  Sedge, Umbrella plant response rating: 0
[11]; [16]
  Plant response rating, Sedge, Umbrella: 0
[11]; [17]
  Plant response rating, Sedge, Umbrella: 65

## CCCCn1c(-c2cccc(F)c2)ncc(C(=O)C2=C(O)C3CCC(C3)C2=O)c1=O (stereo not drawn) [Compound 237]
[1]; [12]
  Plant response rating, Crabgrass, Large: 95
[1]; [13]
  Plant response rating, Crabgrass, Large: 98
[1]; [14]
  Plant response rating, Crabgrass, Large: 100
[1]; [15]
  Plant response rating, Crabgrass, Large: 100
[2]; [12]
  Plant response rating, Bermudagrass: 98
[2]; [13]
  Plant response rating, Bermudagrass: 98
[2]; [14]
  Plant response rating, Bermudagrass: 100
[2]; [15]
  Plant response rating, Bermudagrass: 100
[3]; [12]
  Plant response rating, Foxtail, Green: 80
[3]; [13]
  Plant response rating, Foxtail, Green: 90
[3]; [14]
  Plant response rating, Foxtail, Green: 95
[3]; [15]
  Plant response rating, Foxtail, Green: 95
[4]; [12]
  Plant response rating, Goosegrass: 95
[4]; [13]
  Plant response rating, Goosegrass: 98
[4]; [14]
  Plant response rating, Goosegrass: 98
[4]; [15]
  Plant response rating, Goosegrass: 98
[5]; [12]
  Plant response rating, Morningglory: 85
[5]; [13]
  Plant response rating, Morningglory: 95
[5]; [14]
  Plant response rating, Morningglory: 100
[5]; [15]
  Plant response rating, Morningglory: 100
[6]; [12]
  Plant response rating, Nutsedge, Yellow: 20
[6]; [13]
  Plant response rating, Nutsedge, Yellow: 35
[6]; [14]
  Plant response rating, Nutsedge, Yellow: 45
[6]; [15]
  Plant response rating, Nutsedge, Yellow: 45
[7]; [12]
  Plant response rating, Lambsquarters: 95
[7]; [13]
  Plant response rating, Lambsquarters: 100
[7]; [14]
  Plant response rating, Lambsquarters: 100
[7]; [15]
  Plant response rating, Lambsquarters: 100
Wild oat (Avena fatua); [12]
  Plant response rating, Oat, Wild: 40
Wild oat (Avena fatua); [13]
  Plant response rating, Oat, Wild: 55
Wild oat (Avena fatua); [14]
  Plant response rating, Oat, Wild: 60
Wild oat (Avena fatua); [15]
  Plant response rating, Oat, Wild: 90
[8]; [12]
  Plant response rating, Wheat: 50
[8]; [13]
  Plant response rating, Wheat: 70
[8]; [14]
  Plant response rating, Wheat: 85
[8]; [15]
  Plant response rating, Wheat: 85
[10]
  Plant response rating, Flood, Barnyardgrass: 30
  Barnyardgrass plant response rating: 0
[10]; [16]
  Plant response rating, Barnyardgrass: 0
[10]; [17]
  Plant response rating, Barnyardgrass: 0
[11]
  Plant response rating, Flood, Sedge, Umbrella: 100
  Sedge, Umbrella plant response rating: 0
[11]; [16]
  Plant response rating, Sedge, Umbrella: 45
[11]; [17]
  Plant response rating, Sedge, Umbrella: 55
